Assay results: ChEMBL document CHEMBL1127287, “Synthesis and FKBP binding of small molecule mimics of the tricarbonyl region of FK506” (Bioorg Med Chem Lett, 1994)

Experiments:
[1] = target: T1, Peptidyl-prolyl cis-trans isomerase FKBP1A (Homo sapiens, UniProt P62942); test: Percent inhibition towards recombinant FK506 binding protein 12 to determine the FKBP binding property at a concentration of 100 uM
[2] = target: T1, Peptidyl-prolyl cis-trans isomerase FKBP1A; test: Binding affinity towards recombinant FK506 binding protein 12 to determine the FKBP binding property of the compound

T1 sequence (P62942 whole entry): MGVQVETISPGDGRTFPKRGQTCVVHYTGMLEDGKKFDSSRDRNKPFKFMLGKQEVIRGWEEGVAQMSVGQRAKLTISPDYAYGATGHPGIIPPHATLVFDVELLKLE

inhibition [1]	IC50 [2]	Compound
52%	–	COc1ccc(CCCCOC(=O)[C@@H]2CCCCN2C(=O)Cc2cc(OC)c(OC)c(OC)c2)cc1
39%	–	C=C(C(=O)N1CCCC[C@H]1C(=O)OCCCCc1ccc(OC)cc1)c1cc(OC)c(OC)c(OC)c1
90%	16 µM	COc1ccc(CCCCOC(=O)[C@@H]2CCCCN2C(=O)C(=O)c2cc(OC)c(OC)c(OC)c2)cc1
47%	–	COc1ccc(CCCCOC(=O)[C@@H]2CCCCN2C(=O)C(C)c2cc(OC)c(OC)c(OC)c2)cc1 (stereo not given in full)
